From PMC4114247 (Cancer research, 2009)
“Also recorded” adds a separate entry of the source.

Columns and labels:
[1] = tested on: mice bearing LNCaP xenografts; experiment: SPECT/CT imaging, LNCaP xenografts; assay type: in vivo, mouse; conditions: 4 hr after injection
[2] = Stability in blood plasma; assay type: in vitro ADME; conditions: data not shown
PC3 PIP (PSMA +) tumors = experiment: SPECT/CT imaging, PC3 PIP; conditions: 2 hr after injection
[3] = tested on: PC3 cells (PSMA negative); experiment: Direct binding to PC3 cells; conditions: 3 nM radioligand, 1 hour; PC3 cells lack PSMA
[4] = Stability in liver microsomes; assay type: in vitro ADME; conditions: data not shown
LNCaP cells = experiment: Internalization into LNCaP cells; assay type: cell-based, human; conditions: 100 nM, 0–2 hours
[5] = tested on: NCr-nu/nu mice bearing PC3 xenografts; experiment: Mouse tissue distribution, PC3 xenografts; assay type: in vivo; conditions: PSMA deficient PC3 xenografts
[6] = tested on: NCr nude mice bearing LNCaP xenografts; experiment: Mouse tissue distribution, LNCaP xenografts; assay type: in vivo
[7] = biological target: LNCaP cells (PSMA positive) (Homo sapiens, UniProt Q04609); experiment: Direct binding to LNCaP cells
[8] = co-injected with 50 mg/kg PMPA, 2 hours
[9] = male, athymic NCr-nu/nu, mouse, in vivo
[10] = male, athymic NCr-nu/nu, mouse, in vivo, 0.25 h
[11] = male, athymic NCr-nu/nu, mouse, in vivo, 1 h
[12] = male, athymic NCr-nu/nu, mouse, in vivo, 2 h
[13] = male, athymic NCr-nu/nu, mouse, in vivo, 4 h
[14] = male, athymic NCr-nu/nu, mouse, in vivo, 8 h
[15] = male, athymic NCr-nu/nu, mouse, in vivo, 24 h

Chain of LNCaP cells (PSMA positive) (Q04609 whole entry): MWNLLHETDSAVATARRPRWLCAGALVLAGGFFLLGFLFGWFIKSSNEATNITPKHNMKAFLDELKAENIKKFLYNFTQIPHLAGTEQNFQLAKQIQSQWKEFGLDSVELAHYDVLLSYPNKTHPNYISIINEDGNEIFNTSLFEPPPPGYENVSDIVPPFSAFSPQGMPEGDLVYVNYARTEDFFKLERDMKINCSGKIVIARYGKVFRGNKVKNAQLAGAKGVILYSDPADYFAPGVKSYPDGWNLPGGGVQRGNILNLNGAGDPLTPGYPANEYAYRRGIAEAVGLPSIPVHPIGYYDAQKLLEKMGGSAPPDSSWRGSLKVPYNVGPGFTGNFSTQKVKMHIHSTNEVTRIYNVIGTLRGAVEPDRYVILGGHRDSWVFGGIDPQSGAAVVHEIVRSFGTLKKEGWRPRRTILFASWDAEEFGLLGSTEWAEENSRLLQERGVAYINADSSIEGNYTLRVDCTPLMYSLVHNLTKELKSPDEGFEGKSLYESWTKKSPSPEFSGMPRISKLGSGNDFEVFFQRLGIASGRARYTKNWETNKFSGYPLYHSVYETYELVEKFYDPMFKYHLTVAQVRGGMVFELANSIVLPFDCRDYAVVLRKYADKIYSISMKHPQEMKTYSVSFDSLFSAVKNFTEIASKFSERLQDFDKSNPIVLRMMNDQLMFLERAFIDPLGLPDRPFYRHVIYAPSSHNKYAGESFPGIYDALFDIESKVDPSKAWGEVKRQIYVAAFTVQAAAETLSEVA

SMILES: O=C(O)CC[C@H](NC(=O)N[C@@H](CCCCNC(=O)Nc1ccc(I)cc1)C(=O)O)C(=O)O [[^123I]MIP-1095, (S)-2-(3-((S)-1-carboxy-5-(3-(4-iodophenyl)ureido)pentyl)ureido)pentanedioic acid]
- SPECT/CT uptake in kidney and LNCaP tumor [1]: high uptake
- Stability in blood plasma [2]: stable
- SPECT/CT detection of PC3 PIP (PSMA +) tumors (PC3 PIP (PSMA +) tumors): detected
- Binding to PC3 cells [3]: no binding; also recorded: not to the PSMA deficient PC3 cells
- Stability in liver microsomes [4]: stable
- Internalization into LNCaP cells (LNCaP cells; 4 °C): but not at 4 °C
- Internalization into LNCaP cells (LNCaP cells; 37 °C): internalized; also recorded: time dependent increase in radioactivity associated with the cellular pellet
- Localization to PC3 tumors [5]: not to the PSMA deficient PC3 tumors
- Binding to LNCaP tumor xenografts with co-injected PMPA [6, 8]: blocked
- Binding to kidneys with co-injected PMPA [6, 8]: blocked
- Thyroid content (deiodination) [6, 9]: < 1 % of the total injected dose
- tumor:blood ratio [6, 9]: > 100
- tumor:skeletal muscle ratio [6, 9]: > 100
- Ratio Tumor:Blood [6, 10]: 2.10
- Ratio Tumor:Skeletal Muscle [6, 10]: 8.79
- Tissue distribution: Adipose [6, 10]: 4.67 ± 4 %ID/g
- Tissue distribution: Blood [6, 10]: 3.75 ± 0.7 %ID/g
- Tissue distribution: Bone [6, 10]: 0.9 ± 0.27 %ID/g
- Tissue distribution: Brain [6, 10]: 0.17 ± 0.05 %ID/g
- Tissue distribution: Heart [6, 10]: 2.76 ± 0.54 %ID/g
- Tissue distribution: Kidneys [6, 10]: 52.2 ± 12.2 %ID/g
- Tissue distribution: Lg Intestine [6, 10]: 1.59 ± 1.45 %ID/g
- Tissue distribution: Liver [6, 10]: 8.66 ± 1.54 %ID/g
- Tissue distribution: Lungs [6, 10]: 4.53 ± 0.66 %ID/g
- Tissue distribution: Sk.Muscle [6, 10]: 0.9 ± 0.2 %ID/g
- Tissue distribution: Sm Intestine [6, 10]: 1.78 ± 1.05 %ID/g
- Tissue distribution: Spleen [6, 10]: 9.65 ± 6.44 %ID/g
- Tissue distribution: Stomach [6, 10]: 1.77 ± 0.52 %ID/g
- Tissue distribution: Testes [6, 10]: 1.11 ± 0.51 %ID/g
- Tissue distribution: Tumor (LNCaP xenograft) [6, 10]: 7.9 ± 2.43 %ID/g
- Ratio Tumor:Blood [6, 11]: 10.6
- Ratio Tumor:Skeletal Muscle [6, 11]: 49.3
- Tissue distribution: Adipose [6, 11]: 2.34 ± 0.48 %ID/g
- Tissue distribution: Blood [6, 11]: 1.95 ± 0.23 %ID/g
- Tissue distribution: Bone [6, 11]: 0.55 ± 0.04 %ID/g
- Tissue distribution: Brain [6, 11]: 0.06 ± 0.03 %ID/g
- Tissue distribution: Heart [6, 11]: 1.31 ± 0.22 %ID/g
- Tissue distribution: Kidneys [6, 11]: 65.3 ± 7.5 %ID/g
- Tissue distribution: Lg Intestine [6, 11]: 0.87 ± 0.38 %ID/g
- Tissue distribution: Liver [6, 11]: 11.3 ± 1.3 %ID/g
- Tissue distribution: Lungs [6, 11]: 3.22 ± 0.68 %ID/g
- Tissue distribution: Sk.Muscle [6, 11]: 0.42 ± 0.03 %ID/g
- Tissue distribution: Sm Intestine [6, 11]: 4.4 ± 0.55 %ID/g
- Tissue distribution: Spleen [6, 11]: 4.57 ± 0.77 %ID/g
- Tissue distribution: Stomach [6, 11]: 3.02 ± 0.47 %ID/g
- Tissue distribution: Testes [6, 11]: 0.86 ± 0.18 %ID/g
- Tissue distribution: Tumor (LNCaP xenograft) [6, 11]: 20.7 ± 5.8 %ID/g
- Ratio Tumor:Blood [6, 12]: 24.3
- Ratio Tumor:Skeletal Muscle [6, 12]: 80.8
- Tissue distribution: Adipose [6, 12]: 1.68 ± 1.15 %ID/g
- Tissue distribution: Blood [6, 12]: 1.12 ± 0.48 %ID/g
- Tissue distribution: Bone [6, 12]: 0.36 ± 0.11 %ID/g
- Tissue distribution: Brain [6, 12]: 0.06 ± 0.02 %ID/g
- Tissue distribution: Heart [6, 12]: 0.78 ± 0.28 %ID/g
- Tissue distribution: Kidneys [6, 12]: 88.7 ± 23.8 %ID/g
- Tissue distribution: Lg Intestine [6, 12]: 4 ± 2.82 %ID/g
- Tissue distribution: Liver [6, 12]: 9.94 ± 2.53 %ID/g
- Tissue distribution: Lungs [6, 12]: 2.3 ± 1.02 %ID/g
- Tissue distribution: Sk.Muscle [6, 12]: 0.34 ± 0.17 %ID/g
- Tissue distribution: Sm Intestine [6, 12]: 4.67 ± 0.86 %ID/g
- Tissue distribution: Spleen [6, 12]: 3.73 ± 1.46 %ID/g
- Tissue distribution: Stomach [6, 12]: 2.33 ± 1.79 %ID/g
- Tissue distribution: Testes [6, 12]: 1.27 ± 0.31 %ID/g
- Tissue distribution: Tumor (LNCaP xenograft) [6, 12]: 27.3 ± 3.4 %ID/g
- Ratio Tumor:Blood [6, 13]: 40.6
- Ratio Tumor:Skeletal Muscle [6, 13]: 133
- Tissue distribution: Adipose [6, 13]: 0.86 ± 0.43 %ID/g
- Tissue distribution: Blood [6, 13]: 0.84 ± 0.23 %ID/g
- Tissue distribution: Bone [6, 13]: 0.25 ± 0.04 %ID/g
- Tissue distribution: Brain [6, 13]: 0.44 ± 0.91 %ID/g
- Tissue distribution: Heart [6, 13]: 0.53 ± 0.09 %ID/g
- Tissue distribution: Kidneys [6, 13]: 77.5 ± 16.6 %ID/g
- Tissue distribution: Lg Intestine [6, 13]: 7.55 ± 7.69 %ID/g
- Tissue distribution: Liver [6, 13]: 7.82 ± 1.01 %ID/g
- Tissue distribution: Lungs [6, 13]: 1.6 ± 0.53 %ID/g
- Tissue distribution: Sm Intestine [6, 13]: 6.64 ± 3.19 %ID/g
- Tissue distribution: Spleen [6, 13]: 2.06 ± 0.63 %ID/g
- Tissue distribution: Stomach [6, 13]: 4.09 ± 1.36 %ID/g
- Tissue distribution: Testes [6, 13]: 0.84 ± 0.18 %ID/g
- Ratio Tumor:Blood [6, 14]: 57.5
- Ratio Tumor:Skeletal Muscle [6, 14]: 121
- Tissue distribution: Adipose [6, 14]: 2.63 ± 4.66 %ID/g
- Tissue distribution: Blood [6, 14]: 0.49 ± 0.21 %ID/g
- Tissue distribution: Bone [6, 14]: 0.28 ± 0.13 %ID/g
- Tissue distribution: Brain [6, 14]: 0.07 ± 0.02 %ID/g
- Tissue distribution: Heart [6, 14]: 0.38 ± 0.12 %ID/g
- Tissue distribution: Kidneys [6, 14]: 54.8 ± 19.1 %ID/g
- Tissue distribution: Lg Intestine [6, 14]: 12.28 ± 5.35 %ID/g
- Tissue distribution: Liver [6, 14]: 3.79 ± 0.87 %ID/g
- Tissue distribution: Lungs [6, 14]: 1.53 ± 1 %ID/g
- Tissue distribution: Sk.Muscle [6, 14]: 0.23 ± 0.13 %ID/g
- Tissue distribution: Sm Intestine [6, 14]: 3.66 ± 0.9 %ID/g
- Tissue distribution: Spleen [6, 14]: 1.34 ± 0.63 %ID/g
- Tissue distribution: Stomach [6, 14]: 4.43 ± 2.28 %ID/g
- Tissue distribution: Testes [6, 14]: 0.6 ± 0.12 %ID/g
- Tissue distribution: Tumor (LNCaP xenograft) [6, 14]: 28.1 ± 12.8 %ID/g
- Ratio Tumor:Blood [6, 15]: 174
- Ratio Tumor:Skeletal Muscle [6, 15]: 304
- Tissue distribution: Adipose [6, 15]: 0.52 ± 0.25 %ID/g
- Tissue distribution: Blood [6, 15]: 0.17 ± 0.1 %ID/g
- Tissue distribution: Bone [6, 15]: 0.27 ± 0.19 %ID/g
- Tissue distribution: Brain [6, 15]: 0.03 ± 0.01 %ID/g
- Tissue distribution: Heart [6, 15]: 0.15 ± 0.08 %ID/g
- Tissue distribution: Kidneys [6, 15]: 27 ± 26.2 %ID/g
- Tissue distribution: Lg Intestine [6, 15]: 4.49 ± 3.09 %ID/g
- Tissue distribution: Liver [6, 15]: 1.31 ± 0.63 %ID/g
- Tissue distribution: Lungs [6, 15]: 0.55 ± 0.42 %ID/g
- Tissue distribution: Sk.Muscle [6, 15]: 0.1 ± 0.04 %ID/g
- Tissue distribution: Sm Intestine [6, 15]: 0.76 ± 0.48 %ID/g
- Tissue distribution: Spleen [6, 15]: 0.45 ± 0.29 %ID/g
- Tissue distribution: Stomach [6, 15]: 1.15 ± 1.2 %ID/g
- Tissue distribution: Testes [6, 15]: 0.27 ± 0.23 %ID/g
- Tissue distribution: Tumor (LNCaP xenograft) [6, 15]: 29.1 ± 15.1 %ID/g
- Blood-brain barrier crossing ([6]; mouse, in vivo): do not cross the blood-brain barrier
- Route of clearance ([6]; mouse, in vivo): by both urinary and hepatobiliary routes
- Binding to LNCaP cells in the presence of non-radiolabeled compound or PMPA ([7]; 3 nM radioligand with 10 µM non-radiolabeled compound or 10 µM PMPA): abolished; also recorded: inhibited
- Binding to LNCaP cells ([7]; 3 nM radioligand, 1 hour, room temperature): bound
